Results published in ChEMBL document CHEMBL1177790, “Activity of substituted thiophene sulfonamides against malarial and mammalian cyclin dependent protein kinases” (Bioorg Med Chem Lett, 2010).

Assays:
Protein kinase Pfmrk = target: T1, Protein kinase Pfmrk (Plasmodium falciparum, UniProt P90584); test: Inhibition of His6x-tagged Plasmodium falciparum Pfmrk expressed in Escherichia coli by microtiter plate scintillation counting
T1 sequence (P90584 whole entry): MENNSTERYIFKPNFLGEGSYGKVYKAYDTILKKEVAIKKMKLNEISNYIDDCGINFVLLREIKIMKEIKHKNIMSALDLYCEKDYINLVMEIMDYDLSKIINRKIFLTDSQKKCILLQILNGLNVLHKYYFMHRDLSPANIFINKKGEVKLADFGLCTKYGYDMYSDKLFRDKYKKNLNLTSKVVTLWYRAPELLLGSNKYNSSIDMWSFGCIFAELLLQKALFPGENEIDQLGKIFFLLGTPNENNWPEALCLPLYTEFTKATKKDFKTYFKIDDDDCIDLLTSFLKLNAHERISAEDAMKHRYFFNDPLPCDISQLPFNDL

[1] = Cytotoxicity against human Hs578 cells after 24 hrs by MTT assay; assay type: functional, cell-based; conditions: Hs578, 24 h
LoVo = test: Cytotoxicity against human LoVo cells after 24 hrs by MTT assay; assay type: functional, cell-based
MCF7 = test: Cytotoxicity against human MCF7 cells after 24 hrs by MTT assay; assay type: functional, cell-based; conditions: MCF7, 24 h
[2] = target: Cyclin-dependent kinase 2/cyclin A (Homo sapiens, UniProt P24941); test: Inhibition of human CDK2/Cyclin A; assay type: protein-complex assay
[3] = target: Cyclin-dependent kinase 1/cyclin B1 (Homo sapiens, UniProt P06493); test: Inhibition of human CDK1/cyclin B; assay type: protein-complex assay
Cyclin-dependent kinase 1/cyclin B1, sequence (P06493 whole entry): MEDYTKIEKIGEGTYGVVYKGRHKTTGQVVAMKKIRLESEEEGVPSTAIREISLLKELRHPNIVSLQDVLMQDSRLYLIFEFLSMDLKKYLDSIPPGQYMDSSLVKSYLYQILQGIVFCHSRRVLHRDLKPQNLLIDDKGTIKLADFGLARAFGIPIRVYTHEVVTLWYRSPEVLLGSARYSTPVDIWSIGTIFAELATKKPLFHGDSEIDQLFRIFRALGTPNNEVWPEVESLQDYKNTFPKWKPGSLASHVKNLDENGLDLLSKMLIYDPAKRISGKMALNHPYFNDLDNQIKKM
Cyclin-dependent kinase 1/cyclin B1, sequence (P14635 whole entry, further chain): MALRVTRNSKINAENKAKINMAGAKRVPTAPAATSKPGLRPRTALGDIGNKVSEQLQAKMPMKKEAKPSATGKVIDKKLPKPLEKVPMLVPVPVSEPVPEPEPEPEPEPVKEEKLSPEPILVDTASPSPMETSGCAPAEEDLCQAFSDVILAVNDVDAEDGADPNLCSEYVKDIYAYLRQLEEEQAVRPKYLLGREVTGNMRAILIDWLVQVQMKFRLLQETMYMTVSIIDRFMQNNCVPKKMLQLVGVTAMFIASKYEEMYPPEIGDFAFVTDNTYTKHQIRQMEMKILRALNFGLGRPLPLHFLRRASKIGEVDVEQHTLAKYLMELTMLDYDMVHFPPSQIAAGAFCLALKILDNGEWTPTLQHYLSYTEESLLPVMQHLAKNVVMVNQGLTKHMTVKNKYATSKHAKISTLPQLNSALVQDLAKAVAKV

[4] = target: Cyclin-dependent kinase 7/ cyclin H (Homo sapiens, UniProt P50613); test: Inhibition of human CDK7/Cyclin H/MAT1; assay type: protein-complex assay
Cyclin-dependent kinase 7/ cyclin H, sequence (P51946 whole entry): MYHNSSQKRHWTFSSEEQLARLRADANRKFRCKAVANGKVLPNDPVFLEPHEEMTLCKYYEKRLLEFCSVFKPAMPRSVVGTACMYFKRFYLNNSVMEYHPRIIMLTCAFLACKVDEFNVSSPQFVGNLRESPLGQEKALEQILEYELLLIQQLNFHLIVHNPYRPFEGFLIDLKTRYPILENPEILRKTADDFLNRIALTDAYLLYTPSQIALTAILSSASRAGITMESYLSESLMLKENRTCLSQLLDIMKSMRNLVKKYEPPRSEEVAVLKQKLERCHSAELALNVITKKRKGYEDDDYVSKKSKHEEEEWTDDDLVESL
Cyclin-dependent kinase 7/ cyclin H, sequence (P50613 whole entry): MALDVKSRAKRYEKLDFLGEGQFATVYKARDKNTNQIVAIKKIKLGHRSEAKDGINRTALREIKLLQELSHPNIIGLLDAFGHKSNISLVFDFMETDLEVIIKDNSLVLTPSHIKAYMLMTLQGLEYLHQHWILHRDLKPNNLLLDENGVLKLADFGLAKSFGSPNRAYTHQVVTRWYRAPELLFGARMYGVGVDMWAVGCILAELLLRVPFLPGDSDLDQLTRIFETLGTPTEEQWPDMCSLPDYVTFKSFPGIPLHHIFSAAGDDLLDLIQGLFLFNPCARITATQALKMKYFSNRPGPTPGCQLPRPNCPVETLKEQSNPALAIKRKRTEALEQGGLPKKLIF

DU-145 = test: Cytotoxicity against human DU145 cells after 24 hrs by MTT assay; assay type: functional, cell-based; conditions: DU-145, 24 h
Plasmodium falciparum = test: Antimalarial activity against chloroquine-resistant Plasmodium falciparum W2 assessed as inhibition of [3H]hypoxanthine incorporation after 24 hrs by microtiter plate scintillation counting; assay type: functional, organism-based
RAW264.7 = test: Cytotoxicity against mouse RAW264.7 cells after 24 hrs by MTT assay; assay type: cell-based; conditions: RAW264.7, 24 h
CDK6/cyclin D1 = CDK6/cyclin D1 (Homo sapiens, UniProt Q00534); test: Inhibition of human CDK6/Cyclin D1; assay type: protein-complex assay
CDK6/cyclin D1, sequence (P24385 whole entry): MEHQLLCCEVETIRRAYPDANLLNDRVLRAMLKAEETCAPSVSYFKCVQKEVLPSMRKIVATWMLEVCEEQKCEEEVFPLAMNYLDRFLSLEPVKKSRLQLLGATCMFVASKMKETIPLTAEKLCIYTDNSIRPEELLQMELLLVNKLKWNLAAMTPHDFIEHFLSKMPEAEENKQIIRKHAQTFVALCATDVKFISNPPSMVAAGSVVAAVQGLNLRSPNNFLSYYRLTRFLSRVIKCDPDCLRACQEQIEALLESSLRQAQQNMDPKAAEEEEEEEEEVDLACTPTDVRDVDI
CDK6/cyclin D1, sequence (Q00534 whole entry): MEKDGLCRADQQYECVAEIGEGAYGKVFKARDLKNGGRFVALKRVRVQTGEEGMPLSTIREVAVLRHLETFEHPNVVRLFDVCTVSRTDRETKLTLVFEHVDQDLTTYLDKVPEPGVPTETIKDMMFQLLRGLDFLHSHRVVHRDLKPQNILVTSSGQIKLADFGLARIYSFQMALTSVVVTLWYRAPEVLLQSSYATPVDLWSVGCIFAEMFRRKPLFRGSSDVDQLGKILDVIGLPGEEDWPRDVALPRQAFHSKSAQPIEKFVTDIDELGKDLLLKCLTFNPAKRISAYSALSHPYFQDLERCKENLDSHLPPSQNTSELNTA

[5] = Therapeutic index, IC50 for Plasmodium falciparum W2 to IC50 for mice (Mus musculus) RAW264.7 cells

O=C(NNC(=O)c1ccccc1F)c1ccc2ccccc2c1
IC50 (Protein kinase Pfmrk): 0.4 µM

Cc1ccccc1NC(=O)NC(=O)c1ccccc1Cl
IC50 (Protein kinase Pfmrk): 0.2 µM

N#CC(NCC(O)c1ccccc1)c1ccc(Cl)c(Cl)c1 (stereo not drawn)
IC50 (Protein kinase Pfmrk): 0.6 µM

O=S(=O)(Nc1ccc(C(F)(F)F)cc1)c1ccc(C(F)(F)F)cc1
IC50 (Protein kinase Pfmrk): 16.5 µM

Cc1ccc(NS(=O)(=O)c2ccc(Br)cc2)cc1Cl
IC50 (Protein kinase Pfmrk): 15.9 µM

NS(=O)(=O)c1cc([N+](=O)[O-])c(Cl)s1
IC50 (Protein kinase Pfmrk): 17.4 µM

Cc1cccc(C)c1N(C(=O)CCl)S(=O)(=O)c1cc(Cl)sc1Cl
IC50 (Protein kinase Pfmrk): 20.7 µM

Cc1ccc(N(C(=O)CCl)S(=O)(=O)c2c(Cl)sc(Cl)c2Cl)cc1
IC50 (Protein kinase Pfmrk): 40.1 µM

O=C(CBr)N(c1ccccc1)S(=O)(=O)c1cc(Cl)sc1Cl
IC50 [1]: 51.1 µM
IC50 (Protein kinase Pfmrk): 0.6 µM
IC50 (LoVo): 71.6 µM
IC50 (MCF7): 62 µM
IC50 [2]: 28.5 µM
IC50 [3]: 21.5 µM
IC50 [4]: 33.4 µM
IC50 (DU-145): 91 µM
IC50 (Plasmodium falciparum): 23.3 µM
IC50 (RAW264.7): 89.5 µM
IC50 (CDK6/cyclin D1): 34.9 µM

O=C(CBr)N(c1ccc(Cl)cc1)S(=O)(=O)c1cc(Cl)sc1Cl
IC50 (Protein kinase Pfmrk): 0.8 µM

Cc1ccc(Cl)cc1NS(=O)(=O)c1cc(Cl)ccc1Cl
IC50 (Protein kinase Pfmrk): 45.4 µM

O=S(=O)(Nc1cccc(C(F)(F)F)c1)c1ccc(Cl)cc1
IC50 (Protein kinase Pfmrk): 13.1 µM

O=S(=O)(c1cc(Cl)sc1Cl)N(SC(Cl)(Cl)Cl)c1ccccc1
IC50 (Protein kinase Pfmrk): 29.7 µM

O=S(=O)(Nc1ccc(Cl)cc1SC(Cl)(Cl)Cl)c1cc(Cl)sc1Cl
IC50 (Protein kinase Pfmrk): 19.7 µM

O=S(=O)(Nc1cccc(C(F)(F)F)c1)c1cc(Cl)c(Cl)cc1Cl
IC50 [1]: 55.1 µM
IC50 (Protein kinase Pfmrk): 0.6 µM
IC50 (LoVo): 65.1 µM
IC50 (MCF7): 63.8 µM
IC50 [2]: 10 µM
IC50 [3]: 0.1 µM
IC50 [4]: 0.2 µM
IC50 (DU-145): 44.2 µM
IC50 (Plasmodium falciparum): 24.7 µM
IC50 (RAW264.7): 90.4 µM
IC50 (CDK6/cyclin D1): 58.8 µM

COc1ccc(S(=O)(=O)Nc2cccc(C(F)(F)F)c2)cc1
IC50 (Protein kinase Pfmrk): 48.4 µM

O=S(=O)(Nc1ccccc1)c1cc(Cl)sc1Cl
IC50 (Protein kinase Pfmrk): 14.9 µM

Cc1ccc(NS(=O)(=O)c2cc(Cl)sc2Cl)cc1
IC50 [1]: 40.2 µM
IC50 (Protein kinase Pfmrk): 0.6 µM
IC50 (LoVo): 69.3 µM
IC50 (MCF7): 66.1 µM
IC50 [2]: 31.4 µM
IC50 [3]: 49.3 µM
IC50 [4]: 0.8 µM
IC50 (DU-145): 81.1 µM
IC50 (Plasmodium falciparum): 31 µM
IC50 (RAW264.7): 74.7 µM
IC50 (CDK6/cyclin D1): 51.3 µM

Cc1cc(C)c(NS(=O)(=O)c2ccc(Br)cc2)c(C)c1NS(=O)(=O)c1ccc(Br)cc1
IC50 (Protein kinase Pfmrk): 50.2 µM

Cc1ccc(Cl)cc1S(=O)(=O)Nc1ccc(Cl)c(Cl)c1
IC50 [1]: 54 µM
IC50 (Protein kinase Pfmrk): 15.1 µM
IC50 (LoVo): 55 µM
IC50 (MCF7): 57.3 µM
IC50 [2]: 10.5 µM
IC50 [3]: 0.8 µM
IC50 [4]: 0.4 µM
IC50 (DU-145): 45.4 µM
IC50 (Plasmodium falciparum): 17 µM
IC50 (RAW264.7): 76.6 µM
IC50 (CDK6/cyclin D1): 110 µM

Cc1cc(Cl)ccc1NS(=O)(=O)c1cc(Cl)ccc1Cl
IC50 (Protein kinase Pfmrk): 11 µM

O=S(=O)(Nc1cc(Cl)cc(Cl)c1)c1cc(Cl)sc1Cl
IC50 (Protein kinase Pfmrk): 333 µM

O=S(=O)(Nc1ccc(Cl)cc1)c1c(Cl)sc(Cl)c1Cl
IC50 (Protein kinase Pfmrk): 31.5 µM

Cc1ccc(N(SC(Cl)(Cl)Cl)S(=O)(=O)c2cc(Cl)sc2Cl)cc1
IC50 [1]: 24.9 µM
IC50 (Protein kinase Pfmrk): 0.3 µM
IC50 (LoVo): 70.3 µM
IC50 (MCF7): 30.1 µM
IC50 [2]: 11.5 µM
IC50 [3]: 10.5 µM
IC50 [4]: 0.7 µM
IC50 (DU-145): 53 µM
IC50 (Plasmodium falciparum): 21.2 µM
IC50 (RAW264.7): 39.3 µM
IC50 (CDK6/cyclin D1): 18 µM

Cc1ccc(N(C(=O)C(Cl)Cl)S(=O)(=O)c2cc(Cl)sc2Cl)cc1
IC50 (Protein kinase Pfmrk): 127 µM

O=C1Cc2c([nH]c3ccc([N+](=O)[O-])cc23)-c2ccccc2N1 [ALSTERPAULLONE]
IC50 [1]: 1.9 µM
IC50 (LoVo): < 1 µM
IC50 (MCF7): 2.7 µM
IC50 (DU-145): 1.1 µM
IC50 (RAW264.7): 2.2 µM

O=C1Nc2ccccc2/C1=C1/Nc2ccccc2C1=O [INDIRUBIN]
IC50 [1]: 6.9 µM
IC50 (LoVo): 2.2 µM
IC50 (MCF7): 6.7 µM
IC50 (DU-145): 6.8 µM
IC50 (Plasmodium falciparum): 1.1 µM
IC50 (RAW264.7): 6.1 µM

OC(c1cc(C(F)(F)F)nc2c(C(F)(F)F)cccc12)C1CCCCN1 (stereo not drawn) [MEFLOQUINE]
IC50 [1]: 12.1 µM
selectivity ratio [5]: 65
IC50 (LoVo): 7.9 µM
IC50 (MCF7): 10.6 µM
IC50 (DU-145): 14.4 µM
IC50 (Plasmodium falciparum): 0.1 µM
IC50 (RAW264.7): 6.5 µM
